Reference: US9133131B2 (Purdue Pharma L.P., priority 2011, dated 2015)

How the values were obtained:
hNav1.7 = hNav1.7 (Homo sapiens (Human), UniProt Q15858); assay: Electrophysiology (EP) whole-cell patch clamp assay; type: cell-based; conditions: hNav1.7 HEK-293 cells; for Ki: affinity for the inactivated state of the channel, read-out: Nav1.7 Activity EP assay Ki; for Kd: resting block dissociation constant, read-out: Nav1.7 Activity EP assay Kr
Protocol: Cells: The hNav1.7 expressing HEK-293 cells were plated on 35 mm culture dishes pre-coated with poly-D-lysine in standard DMEM culture media (Mediatech, Inc., Herndon, Va.) and incubated in a 5% CO2 incubator at 37° C. Cultured cells were used approximately 12-48 hours after plating.
Electrophysiology: On the day of experimentation, the 35 mm dish was placed on the stage of an inverted microscope equipped with a perfusion system that continuously perfuses the culture dish with fresh recording media. A gravity driven superfusion system was used to apply test solutions directly to the cell under evaluation. This system consists of an array of glass pipette glass connected to a motorized horizontal translator. The outlet of the shooter was positioned approximately 100 μm from the cell of interest.
Whole cell currents were recorded using the whole-cell patch clamp configuration using an Axopatch 200B amplifier (Axon Instruments, Foster City Calif.), 1322A A/D converter (Axon Instruments) and pClamp software (v. 8; Axon Instruments) and stored on a personal computer. Gigaseals were formed and the whole-cell configuration was established in voltage clamp mode, and membrane currents generated by hNav1.7 were recorded in gap-free mode. Borosilicate glass pipettes have resistance values between 1.5 and 2.0 MΩ when filled with pipette solution and series resistance (<5 MΩ) was compensated 75-80%. Signals were sampled at 50 kHz and low pass filtered at 3 kHz.
Voltage protocols: After establishing the whole-cell configuration in voltage clamp mode, voltage protocols were run to establish the 1) test potential, 2) holding potential, and 3) the conditioning potential for each cell.
After establishing the whole-cell configuration in voltage clamp mode, a standard I-V protocol was run to determine the potential at which the maximal current (Imax) is elicited. This potential was the test potential (Vt). To determine a conditioning potential at which 100% of channels were in the inactivated state, a standard steady-state inactivation (SSIN) protocol was run using a series of fifteen 100 ms-long depolarizing prepulses, incrementing in 10 mV steps, immediately followed by a 5 ms testing pulse, Vt, to Vmax. This protocol also permitted determination of the holding potential at which all channels are in the resting state.
For compounds causing significant retardation of recovery from inactivation, an estimate of the affinity for the inactivated state of the channel (Ki) was generated using the following protocol. From the negative, no residual inactivation, holding potential, the cell was depolarized to the conditioning voltage for 2-5 seconds, returned to the negative holding potential for 10-20 ms to relieve fast inactivation and then depolarized to the test potential for ˜15 ms. This voltage protocol was repeated every 10-15 seconds, first to establish a baseline in the absence of the test compound, then in the presence of the test compound.
After a stable baseline was established, the test compound was applied and block of the current elicited by the test pulse assessed. In some cases, multiple cumulative concentrations were applied to identify a concentration that blocked between 40-60% of this current. Washout of the compound was attempted by superfusing with control solution once steady-state block was observed. An estimate of the Ki was calculated as follows: Ki=[drug]*{FR/(1−FR)}, Eq. 1
where [drug] is the concentration of a drug, and FR=I(after drug)/I(control), Eq. 2 where I is the peak current amplitude. If multiple concentrations were used, Ki was determined from the fit of a logistic equation to FRs plotted against corresponding drug concentrations.
In the alternative, the voltage clamp protocol to examine hNav1.7 currents was as follows. […]

human Nav1.7 = human Nav1.7 (Homo sapiens (Human), UniProt Q15858); assay: FLIPR sodium dye assay for sodium channel blocking activity; type: cell-based; conditions: recombinant human Nav1.7 in HEK293 cells
Sequence of human Nav1.7 (Q15858 other isoform, or with tags, fused parts or gaps): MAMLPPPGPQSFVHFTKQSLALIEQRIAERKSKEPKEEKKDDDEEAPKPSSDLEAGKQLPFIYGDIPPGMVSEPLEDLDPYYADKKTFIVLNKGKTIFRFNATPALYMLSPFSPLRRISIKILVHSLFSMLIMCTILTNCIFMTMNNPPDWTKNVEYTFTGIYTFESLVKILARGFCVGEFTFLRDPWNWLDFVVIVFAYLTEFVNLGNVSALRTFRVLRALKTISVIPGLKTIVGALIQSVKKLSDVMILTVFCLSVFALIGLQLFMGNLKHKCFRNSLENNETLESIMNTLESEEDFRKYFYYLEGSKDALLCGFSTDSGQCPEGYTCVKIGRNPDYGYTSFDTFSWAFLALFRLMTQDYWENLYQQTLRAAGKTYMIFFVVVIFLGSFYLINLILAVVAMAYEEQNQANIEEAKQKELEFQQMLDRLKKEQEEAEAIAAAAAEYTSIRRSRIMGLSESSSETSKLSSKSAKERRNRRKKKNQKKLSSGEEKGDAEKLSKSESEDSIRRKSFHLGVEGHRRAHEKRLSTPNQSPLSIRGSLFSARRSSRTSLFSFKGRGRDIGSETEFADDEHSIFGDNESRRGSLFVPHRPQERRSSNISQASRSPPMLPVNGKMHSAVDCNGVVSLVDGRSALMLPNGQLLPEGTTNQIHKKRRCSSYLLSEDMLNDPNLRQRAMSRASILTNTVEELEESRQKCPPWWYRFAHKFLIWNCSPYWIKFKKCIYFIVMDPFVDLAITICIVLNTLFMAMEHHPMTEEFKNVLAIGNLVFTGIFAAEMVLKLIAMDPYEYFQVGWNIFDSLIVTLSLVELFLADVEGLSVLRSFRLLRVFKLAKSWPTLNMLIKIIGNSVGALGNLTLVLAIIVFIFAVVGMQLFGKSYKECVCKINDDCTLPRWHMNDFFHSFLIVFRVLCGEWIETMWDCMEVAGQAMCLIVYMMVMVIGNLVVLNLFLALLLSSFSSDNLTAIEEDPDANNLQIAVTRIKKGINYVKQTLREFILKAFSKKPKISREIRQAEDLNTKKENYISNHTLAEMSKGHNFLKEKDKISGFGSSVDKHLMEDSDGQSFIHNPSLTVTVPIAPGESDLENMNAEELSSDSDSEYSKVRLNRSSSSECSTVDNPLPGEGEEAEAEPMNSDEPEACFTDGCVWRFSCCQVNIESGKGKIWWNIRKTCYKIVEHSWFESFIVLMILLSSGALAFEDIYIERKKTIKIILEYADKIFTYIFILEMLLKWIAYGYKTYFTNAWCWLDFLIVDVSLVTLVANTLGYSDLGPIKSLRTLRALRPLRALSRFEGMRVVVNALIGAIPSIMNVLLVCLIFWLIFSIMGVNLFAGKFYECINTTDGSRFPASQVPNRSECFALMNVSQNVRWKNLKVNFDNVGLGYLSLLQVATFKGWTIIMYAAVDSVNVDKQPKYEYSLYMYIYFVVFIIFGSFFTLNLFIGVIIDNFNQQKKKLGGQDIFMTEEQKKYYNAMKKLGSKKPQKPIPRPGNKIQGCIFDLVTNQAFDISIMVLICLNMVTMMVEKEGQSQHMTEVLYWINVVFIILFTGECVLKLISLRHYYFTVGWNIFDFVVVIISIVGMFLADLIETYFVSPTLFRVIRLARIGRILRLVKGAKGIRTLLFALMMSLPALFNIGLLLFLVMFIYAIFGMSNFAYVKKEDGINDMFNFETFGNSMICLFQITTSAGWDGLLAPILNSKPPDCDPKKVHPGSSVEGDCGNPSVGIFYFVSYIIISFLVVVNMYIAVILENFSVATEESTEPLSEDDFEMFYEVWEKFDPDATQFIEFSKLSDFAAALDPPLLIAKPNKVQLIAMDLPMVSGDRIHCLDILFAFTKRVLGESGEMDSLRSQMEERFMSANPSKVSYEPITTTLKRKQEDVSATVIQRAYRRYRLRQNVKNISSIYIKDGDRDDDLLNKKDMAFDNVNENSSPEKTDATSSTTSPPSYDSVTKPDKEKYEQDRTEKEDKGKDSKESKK
Description: For dominant selection of the Nav1.7-expressing clones, the expression plasmid co-expressed the neomycin resistance gene. […] Recombinant beta and gamma subunits were not introduced into this cell line. Additional cell lines expressing recombinant Nav1.7 cloned from other species can also be used, alone or in combination with various beta subunits, gamma subunits or chaperones.
Cell maintenance: Unless otherwise noted, cell culture reagents were purchased from Mediatech of Herndon, Va. The recombinant Nav1.7/HEK293 cells were routinely cultured in growth medium consisting of Dulbecco's […] essential medium containing 10% fetal bovine serum (FBS, Hyclone, Thermo Fisher Scientific, Logan, Utah), 100 U/mL penicillin, 100 μg/mL streptomycin, 2-4 mM L-glutamine, and […] G418. For natural, non-recombinant cell lines, the selective antibiotic was omitted, and additional media formulations can be applied as needed.
The intensity of this emission, but not the wavelength range, is increased when the dye is exposed to Na^+ ions, which it can bind with partial selectivity. Cells expressing Nav1.7 or other sodium channels were loaded with the CoroNa™ Green dye immediately in advance of the fluorescence assay, and then, after agonist stimulation, the mobilization of Na^+ ions was detected as the Na^+ ions flowed from the extracellular fluid into the cytoplasm through the activated sodium channel pores. The dye was stored in the dark as a lyophilized powder, and then an aliquot was dissolved immediately before the cell loading procedure, according to the instructions of the manufacturer to a stock concentration of 10 mM in DMSO. It was then diluted in the assay buffer to a 4× concentrated working solution, so that the final concentration of dye in the cell loading buffer was 5 μM.
These scorpion toxins inhibit the fast inactivation of their cognate target channels. Stock solutions of the agonists were prepared to 40 mM in DMSO (veratridine) and 1 mg/mL in dH2O (scorpion venom), and then diluted to make a 4× or 2× stock (depending on the particular assay) in assay buffer, the final concentration being 100 μM (veratridine) and 10 μg/mL (scorpion venom). Both of the agonists were purchased from Sigma Aldrich, St. Louis, Mo.
Test Compounds: Test compounds were dissolved in DMSO to yield 10 mM stock solutions. […] If a particular test article appeared to be especially potent, then the concentration curve was adjusted, e.g., to 10-fold lower concentrations, in order to perform the dose-response in a more relevant concentration range. Compound dilutions were added during the dye-loading and pre-stimulation step, and then again during the fluorescence assay, early in the kinetic read.
Data Analysis: The data were analyzed according to methods known to those skilled in the art or using the GraphPad® Prism version 4.0 or higher, Program (available from GraphPad Software, San Diego, Calif.) to determine the IC50 value for the test article. At least one standard reference compound was evaluated during each experiment.
FLIPR® or FLIPR^TETRA® sodium dye assay with KCl and test article pre-incubation: Cells were prepared by plating the recombinant HEK293 cells or other host cells expressing either recombinant or non-recombinant, native, Nav1.7 alpha subunit, alone or in combination with various beta and gamma subunits at a density of ˜40,000 cells/well into a 96-well black, clear-bottom, PDL-coated plate. The assay can be adapted to 384-well or 1,536-well format, if desired, using proportionately less cells and media. The plate was then incubated in growth media, with or without selective antibiotic, overnight at 37° C. at 5% CO2, 95% humidity, in preparation for the assay. For counter-screens of other voltage-gated sodium channels, the procedure was very similar, though optimal densities of cells, media and subsequent assay components can be fine-tuned for the particular cell line or isoform.

Sequence of hNav1.7 (Q15858 other isoform, or with tags, fused parts or gaps): as above

Row | SMILES | Ki (hNav1.7) [µM] | Kd (hNav1.7) [µM] | IC50 (human Nav1.7) [µM]
1 | N#Cc1ccc(Oc2ccc(-c3nc(C(N)=O)cc([C@H](O)CO)n3)cc2)cc1C(F)(F)F [compound 13] | 0.195 ± 0.03 | 5.15 ± 0.36 | 0.394 ± 0.019
2 | N#Cc1cc(Oc2ccc(-c3nc(C(N)=O)cc([C@H](O)CO)n3)cc2)ccc1C(F)(F)F [compound 11] | 0.147 ± 0.03 | 2.01 ± 0.31 | 0.279 ± 0.112
3 | NC(=O)c1cc([C@@H](O)CO)nc(-c2ccc(Oc3ccc(Cl)cc3F)cc2)n1 [compound 9] | 0.027 ± 0.0003 | 1.04 ± 0.23 | 0.067 ± 0.005
4 | NC(=O)c1cc([C@H](O)CO)nc(-c2ccc(Oc3ccc(C(F)(F)F)cn3)cc2)n1 [compound 19] | – | – | 0.325
5 | NC(=O)c1cc([C@H](O)CO)nc(-c2ccc(Oc3ccc(Cl)cc3F)cc2)n1 [compound 10] | – | – | 0.084 ± 0.029
6 | COC(=O)[C@H](C)NC(=O)c1cc([C@H](O)CO)nc(-c2ccc(Oc3ccc(F)cc3)cc2)n1 [compound 14] | – | – | 1.92 ± 0.401
7 | N#Cc1ccc(Oc2ccc(-c3nc(C(N)=O)cc([C@H](O)CO)n3)cc2)c(C(F)(F)F)c1 [compound 5] | – | – | 0.526 ± 0.129
8 | NC(=O)c1cc([C@H](O)CO)nc(-c2ccc(Oc3ccc(C(F)(F)F)cc3)cc2)n1 [compound 17] | – | – | 0.133 ± 0.026
9 | N#Cc1ccc(Oc2ccc(-c3nc(C(N)=O)cc([C@@H](O)CO)n3)cc2)cc1C(F)(F)F [compound 12] | 0.4 ± 0.09 | 8.67 ± 0.99 | 0.384 ± 0.029
10 | C[C@H](NC(=O)c1cc([C@H](O)CO)nc(-c2ccc(Oc3ccc(F)cc3)cc2)n1)C(=O)O [compound 15] | – | – | > 20
11 | C[C@H](NC(=O)c1cc([C@H](O)CO)nc(-c2ccc(Oc3ccc(F)cc3)cc2)n1)C(N)=O [compound 16] | 0.643 ± 0.19 | 154 ± 54.4 | 0.593 ± 0.004
12 | NC(=O)c1cc([C@@H](O)CO)nc(-c2ccc(Oc3ccc(C(F)(F)F)cc3)cc2)n1 [compound 18] | – | – | 0.135 ± 0.028
